Measured values taken from ChEMBL document CHEMBL2074080, “Enhanced drug-induced apoptosis associated with P-glycoprotein overexpression is specific to antimicrotubule agents” (Pharm Res, 2003).

Biological target: ATP-dependent translocase ABCB1 (Homo sapiens, UniProt P08183)
Assay: TP_TRANSPORTER: drug resistance in MDR1-expressing MCF7 cells
Assay type: functional, cell-based

Chain of ATP-dependent translocase ABCB1 (P08183 whole entry): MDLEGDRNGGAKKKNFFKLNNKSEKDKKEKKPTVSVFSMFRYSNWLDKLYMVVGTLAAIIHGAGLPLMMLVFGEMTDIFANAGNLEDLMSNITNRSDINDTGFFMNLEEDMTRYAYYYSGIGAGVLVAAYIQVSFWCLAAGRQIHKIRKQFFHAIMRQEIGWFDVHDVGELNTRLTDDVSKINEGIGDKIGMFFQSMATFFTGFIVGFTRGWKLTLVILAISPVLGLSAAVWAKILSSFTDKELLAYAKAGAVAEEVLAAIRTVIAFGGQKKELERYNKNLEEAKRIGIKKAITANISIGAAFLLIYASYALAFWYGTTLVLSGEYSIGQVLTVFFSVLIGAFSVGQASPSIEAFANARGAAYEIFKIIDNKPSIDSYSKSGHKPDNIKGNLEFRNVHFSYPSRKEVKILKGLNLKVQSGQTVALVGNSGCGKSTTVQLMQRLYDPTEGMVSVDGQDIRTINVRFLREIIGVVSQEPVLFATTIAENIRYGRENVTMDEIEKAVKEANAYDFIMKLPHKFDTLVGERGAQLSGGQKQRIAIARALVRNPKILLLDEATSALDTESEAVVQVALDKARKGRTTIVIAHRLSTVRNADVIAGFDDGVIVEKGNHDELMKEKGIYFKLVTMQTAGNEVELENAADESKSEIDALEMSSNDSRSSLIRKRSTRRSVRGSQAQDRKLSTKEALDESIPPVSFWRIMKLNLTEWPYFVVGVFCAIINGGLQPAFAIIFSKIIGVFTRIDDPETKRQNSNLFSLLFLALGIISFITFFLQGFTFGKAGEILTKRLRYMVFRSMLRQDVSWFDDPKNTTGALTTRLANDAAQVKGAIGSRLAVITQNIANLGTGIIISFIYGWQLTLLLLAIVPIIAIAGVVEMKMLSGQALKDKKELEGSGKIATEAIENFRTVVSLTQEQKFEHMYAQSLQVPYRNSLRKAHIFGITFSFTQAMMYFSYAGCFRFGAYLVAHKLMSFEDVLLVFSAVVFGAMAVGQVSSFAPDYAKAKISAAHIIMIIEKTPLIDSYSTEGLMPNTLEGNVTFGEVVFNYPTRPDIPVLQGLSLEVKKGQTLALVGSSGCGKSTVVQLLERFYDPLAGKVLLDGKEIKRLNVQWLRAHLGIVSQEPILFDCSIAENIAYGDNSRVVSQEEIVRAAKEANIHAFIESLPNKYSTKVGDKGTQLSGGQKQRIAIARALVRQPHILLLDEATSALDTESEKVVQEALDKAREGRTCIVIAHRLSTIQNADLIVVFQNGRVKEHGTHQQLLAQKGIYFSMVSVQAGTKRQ

Row | Activity | Compound
1 | substrate [+] | CC(=O)O[C@H]1C(=O)[C@@]2(C)[C@H]([C@H](OC(=O)c3ccccc3)[C@]3(O)C[C@H](OC(=O)[C@H](O)[C@@H](NC(=O)c4ccccc4)c4ccccc4)C(C)=C1C3(C)C)[C@]1(OC(C)=O)CO[C@@H]1C[C@@H]2O [PACLITAXEL]
2 | substrate [+] | CC[C@]1(O)C[C@H]2CN(CCc3c([nH]c4ccccc34)[C@@](C(=O)OC)(c3cc4c(cc3OC)N(C=O)[C@H]3[C@@](O)(C(=O)OC)[C@H](OC(C)=O)[C@]5(CC)C=CCN6CC[C@]43[C@@H]65)C2)C1 [VINCRISTINE]
3 | substrate [+] | COc1cccc2c1C(=O)c1c(O)c3c(c(O)c1C2=O)C[C@@](O)(C(=O)CO)C[C@@H]3O[C@H]1C[C@H](N)[C@H](O)[C@H](C)O1 [DOXORUBICIN]

Second part, the compound before the results:

Row | Compound | Activity
4 | CISPLATIN | is not a substrate [-]
5 | O=c1[nH]c(=O)n([C@@H]2O[C@H](CO)[C@@H](O)[C@H]2O)cc1F [5-FLUOROURIDINE] | is not a substrate [-]
6 | CC[C@@]1(O)C(=O)OCc2c1cc1n(c2=O)Cc2cc3ccccc3nc2-1 [CAMPTOTHECIN] | is not a substrate [-]
